Experimental data: patent publication US12077503B2, “Substituted cyclic amides and their use as herbicides” (FMC CORPORATION, priority 2015, dated 2024)

Columns and labels:
Format in all cases: in vivo
[1] = tested on: ryegrass, Italian (Italian ryegrass, Lolium multiflorum); experiment: Test A postemergence; conditions: Lolium multiflorum, post-emergence, 240 h, read-out: Ryegrass, Italian plant response rating (0 to 100 scale)
Outline: (§1)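 Greenhouse, ~10 d after spray; visual injury vs untreated controls, 0 = no effect, 100 = complete control. Preemergence: directed soil spray over planted seeds. Postemergence: plants 2–10 cm, 1–2 leaf stage. Loam/sand blend. Compound in non-phytotoxic solvent with surfactant.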

[2] = tested on: ragweed (common ragweed, Ambrosia elatior); experiment: Test A postemergence; conditions: Ambrosia artemisiifolia, post-emergence, 240 h, read-out: Ragweed plant response rating (0 to 100 scale)
Outline: as §1

[3] = tested on: giant foxtail (Setaria faberii); experiment: Test A postemergence; conditions: Setaria faberi, post-emergence, 240 h, read-out: Foxtail, Giant plant response rating (0 to 100 scale)
Outline: as §1

[4] = tested on: pigweed (Amaranthus retroflexus); experiment: Test A postemergence; conditions: Amaranthus retroflexus, post-emergence, 240 h, read-out: Pigweed plant response rating (0 to 100 scale)
Outline: as §1

[5] = tested on: Galium (catchweed bedstraw, Galium aparine); experiment: Test A postemergence; conditions: Galium, post-emergence, 240 h, read-out: Galium plant response rating (0 to 100 scale)
Outline: as §1

[6] = tested on: wheat (Triticum aestivum); experiment: Test A postemergence; conditions: Triticum aestivum, post-emergence, 240 h, read-out: Wheat plant response rating (0 to 100 scale)
Outline: as §1

[7] = tested on: Kochia (Kochia scoparia); experiment: Test A postemergence; conditions: Bassia scoparia, post-emergence, 240 h, read-out: Kochia plant response rating (0 to 100 scale)
Outline: as §1

[8] = tested on: corn (Zea mays); experiment: Test A postemergence; conditions: Zea mays, post-emergence, 240 h, read-out: Corn plant response rating (0 to 100 scale)
Outline: as §1

[9] = tested on: blackgrass (Alopecurus myosuroides); experiment: Test A postemergence; conditions: Alopecurus myosuroides, post-emergence, 240 h, read-out: Blackgrass plant response rating (0 to 100 scale)
Outline: as §1

[10] = tested on: barnyardgrass (Echinochloa crus-galli); experiment: Test A postemergence; conditions: Echinochloa crus-galli, post-emergence, 240 h, read-out: Barnyardgrass plant response rating (0 to 100 scale)
Outline: as §1

[11] = tested on: ryegrass, Italian (Italian ryegrass, Lolium multiflorum); experiment: Test A preemergence; conditions: Lolium multiflorum, pre-emergence, 240 h, 0 to 100 scale where 0 is no effect and 100 is complete control, read-out: Ryegrass, Italian plant response rating
Outline: as §1

[12] = tested on: ragweed (common ragweed, Ambrosia elatior); experiment: Test A preemergence; conditions: Ambrosia artemisiifolia, pre-emergence, 240 h, 0 to 100 scale where 0 is no effect and 100 is complete control, read-out: Ragweed plant response rating
Outline: as §1

[13] = tested on: giant foxtail (Setaria faberii); experiment: Test A preemergence; conditions: Setaria faberi, pre-emergence, 240 h, 0 to 100 scale where 0 is no effect and 100 is complete control, read-out: Foxtail, Giant plant response rating
Outline: as §1

[14] = tested on: pigweed (Amaranthus retroflexus); experiment: Test A preemergence; conditions: Amaranthus retroflexus, pre-emergence, 240 h, 0 to 100 scale where 0 is no effect and 100 is complete control, read-out: Pigweed plant response rating
[15] = tested on: Kochia (Kochia scoparia); experiment: Test A preemergence; conditions: Bassia scoparia, pre-emergence, 240 h, 0 to 100 scale where 0 is no effect and 100 is complete control, read-out: Kochia plant response rating
Outline: as §1

[16] = tested on: barnyardgrass (Echinochloa crus-galli); experiment: Test A preemergence; conditions: Echinochloa crus-galli, pre-emergence, 240 h, 0 to 100 scale where 0 is no effect and 100 is complete control, read-out: Barnyardgrass plant response rating
Outline: as §1

[17] = tested on: sedge, umbrella (small-flower umbrella sedge, Cyperus difformis); experiment: Test B flooded paddy test; conditions: Cyperus difformis, 250 g ai/ha, Flood; 0 to 100 scale where 0 is no effect and 100 is complete control; read-out: Sedge, Umbrella plant response rating
Outline: (§2)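 Plants at 2-leaf stage flooded to 3 cm above soil, with compounds applied directly to paddy water and that depth maintained. Plants kept in greenhouse 13–15 d. Visual rating versus controls on a 0 (no effect) to 100 (complete control) scale.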

[18] = tested on: ducksalad (Heteranthera limosa); experiment: Test B flooded paddy test; conditions: Heteranthera limosa, 250 g ai/ha, Flood; 0 to 100 scale where 0 is no effect and 100 is complete control; read-out: Ducksalad plant response rating
Outline: as §2

[19] = tested on: rice (Oryra sativa); experiment: Test B flooded paddy test; conditions: Oryza sativa, 250 g ai/ha, Flood; 0 to 100 scale where 0 is no effect and 100 is complete control; read-out: Rice plant response rating
Outline: as §2

[20] = tested on: barnyardgrass (Echinochloa crus-galli); experiment: Test B flooded paddy test; conditions: Echinochloa crus-galli, 250 g ai/ha, Flood; 0 to 100 scale where 0 is no effect and 100 is complete control; read-out: Barnyardgrass plant response rating
Outline: as §2

[21] = 125 g ai/ha, postemergence, visual injury vs untreated controls after approx. 10 d, 0 = no effect, 100 = complete control
[22] = Postemergence, 31 g ai/ha, 0 is no effect, 100 is complete control
[23] = 125 g ai/ha, preemergence, visual injury rating, approximately 10 d

Cc1cc([C@H]2CN(C)C(=O)[C@@H]2C(=O)Nc2cccc(F)c2F)no1 [Compound 1237]
pest or weed control at 125 g/ha [1, 21]: 0% | pest or weed control at 31 g/ha [1, 22]: 0% | pest or weed control at 125 g/ha [2, 21]: 0% | pest or weed control at 31 g/ha [2, 22]: 0% | pest or weed control at 125 g/ha [3, 21]: 20% | pest or weed control at 31 g/ha [3, 22]: 0% | pest or weed control at 125 g/ha [4, 21]: 0% | pest or weed control at 31 g/ha [4, 22]: 0% | pest or weed control at 125 g/ha [5, 21]: 0% | pest or weed control at 31 g/ha [5, 22]: 0% | plant injury at 125 g/ha [6, 21]: 0% | plant injury at 31 g/ha [6, 22]: 0% | pest or weed control at 125 g/ha [7, 21]: 0% | pest or weed control at 31 g/ha [7, 22]: 0% | plant injury at 125 g/ha [8, 21]: 0% | plant injury at 31 g/ha [8, 22]: 0% | pest or weed control at 125 g/ha [9, 21]: 0% | pest or weed control at 31 g/ha [9, 22]: 0% | pest or weed control at 125 g/ha [10, 21]: 20% | pest or weed control at 31 g/ha [10, 22]: 0% | pest or weed control at 31 g/ha ([11]; 31 g ai/ha, Preemergence): 0% | pest or weed control at 125 g/ha [11, 23]: 0% | pest or weed control at 31 g/ha ([12]; 31 g ai/ha, Preemergence): 0% | pest or weed control at 125 g/ha [12, 23]: 0% | pest or weed control at 31 g/ha ([13]; 31 g ai/ha, Preemergence): 20% | pest or weed control at 125 g/ha [13, 23]: 60% | pest or weed control at 31 g/ha ([14]; 31 g ai/ha, Preemergence): 0% | pest or weed control at 125 g/ha [14, 23]: 0% | pest or weed control at 31 g/ha ([15]; 31 g ai/ha, Preemergence): 0% | pest or weed control at 125 g/ha [15, 23]: 0% | pest or weed control at 31 g/ha ([16]; 31 g ai/ha, Preemergence): 0% | pest or weed control at 125 g/ha [16, 23]: 70% | pest or weed control at 250 g/ha [17]: 0% | pest or weed control at 250 g/ha [18]: 65% | pest or weed control at 250 g/ha [19]: 0% | pest or weed control at 250 g/ha [20]: 0%
